From patent US20250163056A1, “NONMUSCLE MYOSIN II INHIBITORS” (The University of Florida Research Foundation, Inc., priority 2018, published 2025) come the findings set out here.

As usually defined, the Ki is a dissociation constant, usually derived from enzyme kinetics or from competition with a known ligand. In general, EC50 refers to the concentration that produces a half-maximal response.

Series [1] relates to hiPS cardiomyocytes (Cor.4U CMs). The series can be described thus: Cardiac safety assay 1: beating parameters of cardiomyocytes (xCELLigence RTCA Cardio). Type of series: cell-based, human. The note with it: hiPS-derived cardiomyocytes, 1 uM, 15 min. Here is the method:
The spontaneous contractions of cardiomyocytes (CMs) is measured label-free in real time using the ACEA xCELLigence RTCA Cardio instrument. All measurements are performed at 37° C. in a cell culture incubator, allowing for spontaneous beating of CMs at physiological conditions. Cor.4U CMs are seeded at 3×10^4 cells/well in 180 μl/well maintenance medium. Prior to seeding, a background impedance measurement (plate plus medium) is performed. The contraction of CMs involves cyclic modulation of cell morphology and adhesion inducing a delta change in impedance. From the cyclic changes in impedance a beating frequency, amplitude and effects on beating pattern can be calculated. Time point “0” (baseline) is recorded 10× for 20 seconds at 1 minute intervals. Thereafter, compounds and control (0.1% DMSO) are added to the wells and effects are measured 30 minutes later. Vehicle control is 0.1% DMSO and positive control is 100 nM isoproterenol. Compounds are tested at 0.1, 0.3, 1.0 and 3.0 uM. Data is collected at 5, 10, 15, 20 and 30 minutes, and 1, 4, 6, 12 and 24 hours post-incubation.

A further series addresses Bovine cardiac myosin (Bos taurus (Bovine), UniProt Q9BE39). Nature of the series: Cardiac muscle myosin II actin-activated ATPase assay (NADH-coupled). It is filed as biochemical. In a few lines: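 Inhibitory constants came from a quadratic one-to-one binding fit of 16-point dose-responses (highest final 50 uM, triplicate). Rates were NADH-calibrated fluorescence slopes over 30 min at 25° C, with 300 nM bovine cardiac myosin, 10 μM actin and 1 mM ATP coupled through PK/LDH in pH 7.0 MOPS buffer.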

In another series the target is nonmuscle myosin II (Chlorocebus sabaeus, UniProt A0A0D9RDH4). The series can be described thus: Cytokinesis cell-based assay of nonmuscle myosin II function in COS7 cells. To be noted: read-out: NMII EC50. How it is done: Cytokinesis is a cell-based assay to assess nonmuscle myosin II function, performed using COS7 cells. The assay is run in a 96 well plate, with 2,000 cells plated per well. Total incubation time is 48 hours, with 24 hours of treatment with the compound of interest. Prior to treatment with small molecules, a two-fold dilution series of compound solutions is prepared in DMSO. Starting concentrations are determined based on compound solubility. Compound solutions are further diluted in DMEM medium to a final DMSO concentration of 2% (50-fold dilution). Subsequently, 100 μl diluted solution is transferred to each well of the plate containing 100 μl of cell culture (achieving 1% final DMSO concentration). All measurements are carried out in triplicate. Cells are stained by fluorescein diacetate (6 μM), a cell viability dye, the cell-permeant Hoescht33342 (10 μM) and the membrane-impermeant propidium iodide (4 μM) to label all nuclei and those belonging to dead cells, respectively. Dye solutions are replaced by fresh media after 10 minutes of incubation. An INCell Analyzer 6000 is used for imaging. […] Cytotoxicity is also assayed and quantified as the ratio of dead nuclei to total nuclei. […] Half maximal effective concentration (EC50) is determined by fitting the 6-point dose-response data to the Hill equation.
Chain of nonmuscle myosin II (A0A0D9RDH4 1-1976): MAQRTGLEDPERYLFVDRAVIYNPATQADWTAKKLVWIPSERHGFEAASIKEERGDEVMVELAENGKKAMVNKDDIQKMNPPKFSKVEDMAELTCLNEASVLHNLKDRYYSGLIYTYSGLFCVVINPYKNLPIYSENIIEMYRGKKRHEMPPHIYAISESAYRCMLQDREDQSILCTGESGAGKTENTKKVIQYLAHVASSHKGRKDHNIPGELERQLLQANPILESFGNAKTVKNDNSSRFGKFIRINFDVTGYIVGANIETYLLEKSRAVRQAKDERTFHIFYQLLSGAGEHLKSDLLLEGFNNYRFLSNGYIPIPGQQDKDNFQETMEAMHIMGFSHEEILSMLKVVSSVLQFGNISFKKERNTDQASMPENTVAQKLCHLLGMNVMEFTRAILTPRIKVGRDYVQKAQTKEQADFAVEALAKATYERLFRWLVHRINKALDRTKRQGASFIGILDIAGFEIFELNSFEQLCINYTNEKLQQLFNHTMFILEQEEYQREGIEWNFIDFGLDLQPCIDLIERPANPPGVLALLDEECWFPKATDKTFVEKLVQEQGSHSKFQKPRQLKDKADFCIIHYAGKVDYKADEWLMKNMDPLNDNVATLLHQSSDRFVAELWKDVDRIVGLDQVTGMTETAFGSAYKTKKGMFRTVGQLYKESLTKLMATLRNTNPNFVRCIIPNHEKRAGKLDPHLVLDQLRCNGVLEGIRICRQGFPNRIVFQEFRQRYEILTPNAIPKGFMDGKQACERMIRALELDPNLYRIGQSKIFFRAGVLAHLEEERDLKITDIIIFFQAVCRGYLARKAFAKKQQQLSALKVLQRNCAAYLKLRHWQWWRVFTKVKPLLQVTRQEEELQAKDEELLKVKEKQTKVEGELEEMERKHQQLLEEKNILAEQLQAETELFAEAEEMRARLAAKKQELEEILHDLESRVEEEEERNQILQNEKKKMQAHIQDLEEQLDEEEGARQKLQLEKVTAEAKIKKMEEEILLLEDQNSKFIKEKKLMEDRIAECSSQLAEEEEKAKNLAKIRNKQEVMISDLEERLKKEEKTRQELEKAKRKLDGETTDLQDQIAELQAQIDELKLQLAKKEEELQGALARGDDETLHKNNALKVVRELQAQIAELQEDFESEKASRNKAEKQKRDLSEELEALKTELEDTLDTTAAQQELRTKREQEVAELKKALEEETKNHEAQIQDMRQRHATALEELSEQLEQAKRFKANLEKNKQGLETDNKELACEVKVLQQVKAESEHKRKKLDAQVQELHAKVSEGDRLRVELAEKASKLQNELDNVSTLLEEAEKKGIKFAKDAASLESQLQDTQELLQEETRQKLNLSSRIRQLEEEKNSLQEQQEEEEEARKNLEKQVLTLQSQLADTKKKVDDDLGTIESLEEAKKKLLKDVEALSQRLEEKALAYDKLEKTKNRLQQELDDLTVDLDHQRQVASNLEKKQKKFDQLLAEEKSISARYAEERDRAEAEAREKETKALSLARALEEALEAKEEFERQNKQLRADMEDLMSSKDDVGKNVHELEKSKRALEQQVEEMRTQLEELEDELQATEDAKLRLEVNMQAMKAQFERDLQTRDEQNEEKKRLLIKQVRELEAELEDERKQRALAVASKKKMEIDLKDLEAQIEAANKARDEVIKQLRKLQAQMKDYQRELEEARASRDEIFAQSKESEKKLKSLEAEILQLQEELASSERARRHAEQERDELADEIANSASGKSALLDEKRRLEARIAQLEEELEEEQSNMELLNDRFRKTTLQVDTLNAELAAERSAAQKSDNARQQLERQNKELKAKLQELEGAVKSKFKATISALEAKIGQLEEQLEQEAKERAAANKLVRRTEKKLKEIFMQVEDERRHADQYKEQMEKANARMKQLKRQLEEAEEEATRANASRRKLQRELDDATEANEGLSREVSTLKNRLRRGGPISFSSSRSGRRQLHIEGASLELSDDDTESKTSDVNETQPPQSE

Chain of Bovine cardiac myosin (Q9BE39 whole entry): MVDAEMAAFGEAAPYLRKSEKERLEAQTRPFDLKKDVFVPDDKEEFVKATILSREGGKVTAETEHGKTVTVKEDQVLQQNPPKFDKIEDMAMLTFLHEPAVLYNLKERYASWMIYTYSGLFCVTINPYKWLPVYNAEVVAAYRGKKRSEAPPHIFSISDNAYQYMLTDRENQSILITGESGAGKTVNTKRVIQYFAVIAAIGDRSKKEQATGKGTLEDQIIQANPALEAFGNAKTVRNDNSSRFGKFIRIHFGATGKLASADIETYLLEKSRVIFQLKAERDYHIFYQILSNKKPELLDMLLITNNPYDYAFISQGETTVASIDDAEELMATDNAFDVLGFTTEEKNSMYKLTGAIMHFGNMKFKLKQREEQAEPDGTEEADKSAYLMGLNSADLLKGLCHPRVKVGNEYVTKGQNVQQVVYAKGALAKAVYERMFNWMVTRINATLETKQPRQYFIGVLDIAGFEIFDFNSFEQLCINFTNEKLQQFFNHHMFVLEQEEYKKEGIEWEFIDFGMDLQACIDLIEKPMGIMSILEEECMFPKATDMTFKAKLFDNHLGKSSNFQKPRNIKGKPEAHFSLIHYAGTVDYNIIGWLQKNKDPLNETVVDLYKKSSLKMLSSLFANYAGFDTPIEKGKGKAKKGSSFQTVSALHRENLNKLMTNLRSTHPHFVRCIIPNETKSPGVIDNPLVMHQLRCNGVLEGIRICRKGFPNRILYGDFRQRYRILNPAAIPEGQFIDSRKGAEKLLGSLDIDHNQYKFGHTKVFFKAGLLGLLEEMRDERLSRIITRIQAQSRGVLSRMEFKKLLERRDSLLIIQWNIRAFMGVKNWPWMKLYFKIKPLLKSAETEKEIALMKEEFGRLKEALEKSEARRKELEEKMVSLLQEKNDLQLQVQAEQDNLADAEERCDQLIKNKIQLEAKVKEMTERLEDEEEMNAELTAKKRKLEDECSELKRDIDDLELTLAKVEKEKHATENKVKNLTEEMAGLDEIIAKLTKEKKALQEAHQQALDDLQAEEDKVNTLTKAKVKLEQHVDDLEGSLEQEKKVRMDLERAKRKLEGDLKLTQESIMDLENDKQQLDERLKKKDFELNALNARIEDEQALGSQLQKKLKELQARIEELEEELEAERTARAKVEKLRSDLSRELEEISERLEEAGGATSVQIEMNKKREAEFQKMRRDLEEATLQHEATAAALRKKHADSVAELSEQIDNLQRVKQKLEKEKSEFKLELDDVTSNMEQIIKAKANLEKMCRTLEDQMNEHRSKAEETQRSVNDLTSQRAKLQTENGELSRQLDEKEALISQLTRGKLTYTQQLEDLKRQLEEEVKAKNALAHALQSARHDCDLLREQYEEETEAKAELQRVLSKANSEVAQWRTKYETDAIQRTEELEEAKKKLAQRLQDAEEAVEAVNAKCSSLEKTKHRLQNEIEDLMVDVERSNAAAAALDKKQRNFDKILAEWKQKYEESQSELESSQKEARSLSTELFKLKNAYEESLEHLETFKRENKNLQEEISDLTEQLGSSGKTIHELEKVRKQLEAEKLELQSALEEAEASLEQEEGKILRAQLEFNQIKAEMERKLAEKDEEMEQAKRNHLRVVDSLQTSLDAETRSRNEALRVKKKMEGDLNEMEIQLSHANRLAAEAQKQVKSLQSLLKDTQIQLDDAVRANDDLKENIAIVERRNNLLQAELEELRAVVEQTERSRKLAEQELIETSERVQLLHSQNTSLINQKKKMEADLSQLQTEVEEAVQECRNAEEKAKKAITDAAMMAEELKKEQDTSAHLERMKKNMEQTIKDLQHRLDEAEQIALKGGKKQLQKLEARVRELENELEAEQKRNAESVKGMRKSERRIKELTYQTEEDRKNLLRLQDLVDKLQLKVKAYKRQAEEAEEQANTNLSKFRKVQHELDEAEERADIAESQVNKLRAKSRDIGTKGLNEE
Chain of Bovine cardiac myosin (P85100 whole entry partner): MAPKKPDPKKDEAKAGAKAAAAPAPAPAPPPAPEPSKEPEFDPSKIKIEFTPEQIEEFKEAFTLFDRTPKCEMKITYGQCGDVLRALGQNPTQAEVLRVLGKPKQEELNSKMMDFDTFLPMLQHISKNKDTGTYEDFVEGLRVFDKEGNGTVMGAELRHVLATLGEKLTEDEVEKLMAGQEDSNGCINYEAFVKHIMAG
Chain of Bovine cardiac myosin (Q3SZE5 whole entry partner): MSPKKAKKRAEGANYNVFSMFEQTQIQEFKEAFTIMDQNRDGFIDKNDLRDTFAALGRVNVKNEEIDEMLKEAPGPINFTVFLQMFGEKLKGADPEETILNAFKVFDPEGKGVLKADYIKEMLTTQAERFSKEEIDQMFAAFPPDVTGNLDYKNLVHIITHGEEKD

On to `O=C1c2cc(Cl)ccc2N=C2N(c3ccccc3)CC[C@@]12O` [BPN-0025002], for which, in series [1], the “Change in amplitude at 1 uM @ 15 min” value is −38.9 ± 2.4%. The “CMMII/NMII Ratio” value at Bovine cardiac myosin (cardiac Ki relative to NMII EC50) was 0.76. In addition, the Ki on Bovine cardiac myosin (cardiac muscle myosin II, read-out: CMMII Ki) was found to be 1970 nM. The EC50 at nonmuscle myosin II came to 2600 nM.
